Experiment: recombinant UMI read abundance after kanamycin selection (control-corrected) (log10(CPM+1)); higher = more efficient recombination; extreme values may be limits of the assay; sequences stand for … in AGTGCAGAGAAAATCGGCCAGTTTTCTCTGCCTGCAGTCCGCATGCCGTGGGACCCCTTGGGTTCTAACCTGTTGCCTAGATTTATGCAGCGGACTGCCTTTCTCCCAAAGTGATAAACCGG…AGGTTGGTTTCACT; site = the 11-nt donor
In short: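 Sequenced counts of recombinant UMIs were turned into CPM, averaged across replicates and scaled with control-derived factors. The reported figure is log10(CPM+1). Those UMIs, each 12 nt long, tagged donor and donor-binding-loop pairs on a plasmid with a promoterless kanamycin gene, screened as a pool in Escherichia coli with IPTG (0.07 mM) plus kanamycin or without selection.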
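Further: IS621 bridge recombinase in Escherichia coli cells against a fixed T5 target plasmid.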

Sequence	recombinant UMI read abundance (log10)
CCAGTTGCATGGACCGGTTTTCCCGGTAATCCGTATTTGAT (site CCAGTTGCTAT)	1.42
CCATAAACATGGACCGGTTTTCCCGGTAATCCGTATTTGCT (site CCATAAACTAG)	1.06
CCATACCCATGGACCGGTTTTCCCGGTAATCCGTATTTGCG (site CCATACCCTCG)	0.287
CCATACCCATGGACCGGTTTTCCCGGTAATCCGTATTTGTG (site CCATACCCTCA)	0.00448
CCATCGACATGGACCGGTTTTCCCGGTAATCCGTATTTGTT (site CAATCGACTAA)	0.00346
CCATCGACATGGACCGGTTTTCCCGGTAATCCGTATTTGTT (site CCATCGACTAA)	0.266
CCATCGACATGGACCGGTTTTCCCGGTAATCCGTATTTGTT (site CGATCGACTAA)	0
CCATCGACATGGACCGGTTTTCCCGGTAATCCGTATTTGTT (site CTATCGACTAA)	0.0452
CCATGAGCATGGACCGGTTTTCCCGGTAATCCGTATTTGAG (site CCATGAGCTCT)	0.662
CCATGATCATGGACCGGTTTTCCCGGTAATCCGTATTTGAA (site CCATGATCTTT)	1.02
CCATTATCATGGACCGGTTTTCCCGGTAATCCGTATTTGCT (site CCATTATCTAG)	1.49
CCATTATCATGGACCGGTTTTCCCGGTAATCCGTATTTGCT (site CGATCATCTAG)	0
CCATTCTCATGGACCGGTTTTCCCGGTAATCCGTATTTGGG (site CCATTCTCTCC)	0
CCATTCTCATGGACCGGTTTTCCCGGTAATCCGTATTTGGG (site CCCTTCTCTCC)	0.00367
CCATTCTCATGGACCGGTTTTCCCGGTAATCCGTATTTGGG (site CCGTTCTCTCC)	0.00306
CCATTCTCATGGACCGGTTTTCCCGGTAATCCGTATTTGGG (site CCTTTCTCTCC)	0.0196
CCATTTACATGGACCGGTTTTCCCGGTAATCCGTATTTGCT (site CCATTTACTAG)	0.933
CCATTTACATGGACCGGTTTTCCCGGTAATCCGTATTTGCT (site CCCTTTACTAG)	0
CCATTTACATGGACCGGTTTTCCCGGTAATCCGTATTTGCT (site CCGTTTACTAG)	0
CCATTTACATGGACCGGTTTTCCCGGTAATCCGTATTTGCT (site CCTTTTACTAG)	0.00937
CCCAACCCATGGACCGGTTTTCCCGGTAATCCGTATTTGTG (site CCCAACCCTCA)	0.0205
CCCACCGCATGGACCGGTTTTCCCGGTAATCCGTATTTGCC (site CCCACCGCTGG)	0.815
CCCAGATCATGGACCGGTTTTCCCGGTAATCCGTATTTGGA (site CCCAGATCTTC)	0.0263
CCCAGGACATGGACCGGTTTTCCCGGTAATCCGTATTTGCG (site CCCAGGACTCG)	0.893
CCCAGGGCATGGACCGGTTTTCCCGGTAATCCGTATTTGTG (site CCCAGGGCTCA)	0.475

Sequence	recombinant UMI read abundance (log10)
CCCATATCATGGACCGGTTTTCCCGGTAATCCGTATTTGCC (site CCCATATCTGA)	0
CCCATATCATGGACCGGTTTTCCCGGTAATCCGTATTTGCC (site CCCATATCTGC)	0
CCCATATCATGGACCGGTTTTCCCGGTAATCCGTATTTGCC (site CCCATATCTGG)	0.328
CCCATATCATGGACCGGTTTTCCCGGTAATCCGTATTTGCC (site CCCATATCTGT)	0.454
CCCATATCATGGACCGGTTTTCCCGGTAATCCGTATTTGTG (site CCCATATCTAA)	0.00783
CCCATATCATGGACCGGTTTTCCCGGTAATCCGTATTTGTG (site CCCATATCTCA)	0.356
CCCATATCATGGACCGGTTTTCCCGGTAATCCGTATTTGTG (site CCCATATCTGA)	0
CCCATATCATGGACCGGTTTTCCCGGTAATCCGTATTTGTG (site CCCATATCTTA)	0.0103
CCCATGTCATGGACCGGTTTTCCCGGTAATCCGTATTTGTC (site CCCATATCTGA)	0
CCCATGTCATGGACCGGTTTTCCCGGTAATCCGTATTTGTC (site CCCATCTCTGA)	0
CCCATGTCATGGACCGGTTTTCCCGGTAATCCGTATTTGTC (site CCCATGTCTGA)	1.64
CCCATGTCATGGACCGGTTTTCCCGGTAATCCGTATTTGTC (site CCCATTTCTGA)	0
CCCATTTCATGGACCGGTTTTCCCGGTAATCCGTATTTGTC (site CCCATATCTGA)	0
CCCATTTCATGGACCGGTTTTCCCGGTAATCCGTATTTGTC (site CCCATCTCTGA)	0
CCCATTTCATGGACCGGTTTTCCCGGTAATCCGTATTTGTC (site CCCATGTCTGA)	0
CCCATTTCATGGACCGGTTTTCCCGGTAATCCGTATTTGTC (site CCCATTTCTGA)	0
CCCCAATCATGGACCGGTTTTCCCGGTAATCCGTATTTGTG (site CCCCAATCTCA)	0.678
CCCCACACATGGACCGGTTTTCCCGGTAATCCGTATTTGAA (site CCCCACACTTA)	0.0109
CCCCACACATGGACCGGTTTTCCCGGTAATCCGTATTTGAA (site CCCCACACTTC)	0.33
CCCCACACATGGACCGGTTTTCCCGGTAATCCGTATTTGAA (site CCCCACACTTG)	0
CCCCACACATGGACCGGTTTTCCCGGTAATCCGTATTTGAA (site CCCCACACTTT)	0.557
CCCCACACATGGACCGGTTTTCCCGGTAATCCGTATTTGTA (site ACCCACACTTA)	0.0144
CCCCACACATGGACCGGTTTTCCCGGTAATCCGTATTTGTA (site CACCACACTTA)	0.0132
CCCCACACATGGACCGGTTTTCCCGGTAATCCGTATTTGTA (site CCACACACTTA)	0.0146
CCCCACACATGGACCGGTTTTCCCGGTAATCCGTATTTGTA (site CCCAACACTTA)	0

Sequence	recombinant UMI read abundance (log10)
CCCCACACATGGACCGGTTTTCCCGGTAATCCGTATTTGTA (site CCCCAAACTTA)	0
CCCCACACATGGACCGGTTTTCCCGGTAATCCGTATTTGTA (site CCCCACACTAA)	0.0177
CCCCACACATGGACCGGTTTTCCCGGTAATCCGTATTTGTA (site CCCCACACTCA)	0.0202
CCCCACACATGGACCGGTTTTCCCGGTAATCCGTATTTGTA (site CCCCACACTGA)	0
CCCCACACATGGACCGGTTTTCCCGGTAATCCGTATTTGTA (site CCCCACACTTA)	1.14
CCCCACACATGGACCGGTTTTCCCGGTAATCCGTATTTGTA (site CCCCACACTTC)	0.0125
CCCCACACATGGACCGGTTTTCCCGGTAATCCGTATTTGTA (site CCCCACACTTG)	0.586
CCCCACACATGGACCGGTTTTCCCGGTAATCCGTATTTGTA (site CCCCACACTTT)	0.00983
CCCCACACATGGACCGGTTTTCCCGGTAATCCGTATTTGTA (site CCCCACCCTTA)	0.00838
CCCCACACATGGACCGGTTTTCCCGGTAATCCGTATTTGTA (site CCCCACGCTTA)	0.0198
CCCCACACATGGACCGGTTTTCCCGGTAATCCGTATTTGTA (site CCCCACTCTTA)	0.273
CCCCACACATGGACCGGTTTTCCCGGTAATCCGTATTTGTA (site CCCCAGACTTA)	0.0244
CCCCACACATGGACCGGTTTTCCCGGTAATCCGTATTTGTA (site CCCCATACTTA)	0.0127
CCCCACACATGGACCGGTTTTCCCGGTAATCCGTATTTGTA (site CCCCCCACTTA)	0.0246
CCCCACACATGGACCGGTTTTCCCGGTAATCCGTATTTGTA (site CCCCGCACTTA)	0.0118
CCCCACACATGGACCGGTTTTCCCGGTAATCCGTATTTGTA (site CCCCTCACTTA)	0.0137
CCCCACACATGGACCGGTTTTCCCGGTAATCCGTATTTGTA (site CCCGACACTTA)	0.0189
CCCCACACATGGACCGGTTTTCCCGGTAATCCGTATTTGTA (site CCCTACACTTA)	0.0176
CCCCACACATGGACCGGTTTTCCCGGTAATCCGTATTTGTA (site CCGCACACTTA)	0.021
CCCCACACATGGACCGGTTTTCCCGGTAATCCGTATTTGTA (site CCTCACACTTA)	0.0102
CCCCACACATGGACCGGTTTTCCCGGTAATCCGTATTTGTA (site CGCCACACTTA)	0.016
CCCCACACATGGACCGGTTTTCCCGGTAATCCGTATTTGTA (site CTCCACACTTA)	0.113
CCCCACACATGGACCGGTTTTCCCGGTAATCCGTATTTGTA (site GCCCACACTTA)	0.00479
CCCCACACATGGACCGGTTTTCCCGGTAATCCGTATTTGTA (site TCCCACACTTA)	0.0139
CCCCAGACATGGACCGGTTTTCCCGGTAATCCGTATTTGTA (site CCCCAAACTTA)	0.459

— the supplement of paper PMC11208160
